Here are results for 23 molecules from patent US12540115B2, “Inhibitors of phospholipid synthesis and methods of use” (priority 2019, dated 2026).

What is called IC50 is the concentration at which inhibition is half-maximal.

One assay concerns renal cell carcinoma. In words: Renal cell carcinoma (RCC) in vivo tumor experiments. As to conditions: dosage range 0.1 mg/kg to 100 mg/kg for 7 to 30 days. Details: species or system mice. On the procedure:
(§1) FIG. 1-26 illustrate various exemplary GPAT inhibitors that suppress cancer cell proliferation. With reference to FIG. 1-26: BCL stands for Burkitt lymphoma line, all experiments on BCL were done using trypan blue and cell counts. Cells are treated 1-3 days with dosage range 1 mM to 0.1 nM. RCC stands for renal cell carcinoma, all experiments on RCC were in vivo experiments. Tumors are treated with dosage range 0.1 mg/kg to 100 mg/kg for X days, wherein X ranges from 7 to 30 days. All experiments are done in MTT assay on mouse hepatocellular carcinoma lines that are treated 1-3 days with the dosage range from 1 mM to 0.1 nM. The bar in each of FIGS. 1-26 entitled “Untreated” refers to a sample without an exemplary GPAT inhibitor compound, diluted in DMSO solvent.
MYC RCC mice were generated by crossing FVB/N-Tg(tetO-MYC)28aBop/J mice for MYC with Tg(Ggt1-tTA) #Agoc or (GGT-tTA) for kidney specificity. MYC HCC mice were generated by crossing FVB/N-Tg(tetO-MYC)28aBop/J mice for MYC with Tg(Cebpb-tTA)5Bjd or (LAP-tTA) for liver specificity. All parental lines had undergone at least 10 generations of backcrossing. MYC RCC and MYC HCC mice were bred on doxycycline until 4 weeks of age, when doxycycline was replaced with water for at least 2 weeks for tumorigenesis depending on the experiment described in the patent. […]

The subject of assay [1] is mouse hepatocellular carcinoma lines. Put plainly: Cancer cell proliferation, MTT assay on mouse hepatocellular carcinoma lines. It is filed as cell-based. As to conditions: treated 1-3 days, dosage range 1 mM to 0.1 nM; vs untreated (DMSO). On the procedure:
as §1
(In general: Formazan colour is commonly taken as a measure of viable cells.)

A further assay deals with Burkitt lymphoma line. Put plainly: Burkitt lymphoma line proliferation, trypan blue and cell counts. It is filed as cell-based. As to conditions: treated 1-3 days, dosage range 1 mM to 0.1 nM. On the procedure:
as §1

The subject of the next assay is MYC-induced tumors. In words: FSG67 in MYC-induced tumors, xenograft and primary mouse models. Type of assay: in vivo. The text has this: We present a comprehensive overview of how the MYC oncogene controls lipogenesis to promote tumorigenesis. We find that MYC globally regulates the expression of key genes and their resulting proteins and metabolites in lipogenesis for human and murine cell lines as well as for transgenic mouse models. […] Desorption electrospray ionization mass spectrometric imaging (DESI-MSI) from tissue samples of several conditional transgenic mouse models identified in vivo metabolic changes in simple fatty acids and in complex phospholipids induced by MYC. […] Strong correlation between these in situ changes and elevation of gene expressions of cytidinediphosphate diacylglycerol pathway genes as well as fatty acid elongase genes were found. By administering FSG67, which inhibits GPAT, MYC-induced tumorigenesis was blocked, metabolic changes were suppressed, and tumors regressed in xenograft and primary mouse models.

For assay [2], the target named is glycerol 3-phosphate acyltransferase (GPAT). As to conditions: read-out: IC50, inhibitor of glycerol 3-phosphate acyltransferase (GPAT); cited from earlier work.
The test system of a further assay is diet-induced obese mice. The conditions noted are these: cited from earlier work.

Regarding `CC(C)S(=O)(=O)Nc1ccccc1C(=O)O` [BTX 205], in the assay on renal cell carcinoma, the “renal cell carcinoma cell proliferation” value is listed as “suppresses renal cell carcinoma cell proliferation”.
`CS(=O)(=O)Nc1ccccc1C(=O)O` [BTX 601]: the cancer cell proliferation result in assay [1] is recorded as “suppresses cancer cell proliferation”.
Take `NC1=NS(=O)(=O)c2ccccc21` [BTX 291002]: the cancer cell proliferation result in assay [1] was “suppresses cancer cell proliferation”.
Take `CCCCCCCCCS(=O)(=O)Nc1ccccc1F` [BTX 1101]: in assay [1], the cancer cell proliferation result was “suppresses cancer cell proliferation”.
Turning to `CCOCCS(=O)(=O)Nc1ccccc1C(=O)O` [BTX 108], the cancer cell proliferation entry in assay [1] is on record as “suppresses cancer cell proliferation”.
Consider `CCCCCCCCCS(=O)(=O)Nc1ccccc1Br` [BTX 2121], for which the cancer cell proliferation result in assay [1] was “suppresses cancer cell proliferation”.
Consider `CCCCCCCCCS(=O)(=O)Nc1ccccc1CO` [BTX 83009], for which the cancer cell proliferation entry in assay [1] is “suppresses cancer cell proliferation”.
Take `CCCCCCCCCS(=O)(=O)Nc1ccccc1C(=O)NS(=O)(=O)C(F)(F)F` [BTX 9141]: the “Burkitt lymphoma cell proliferation” value with Burkitt lymphoma line was “suppresses Burkitt lymphoma cell proliferation”.
Consider `CCCCCCCCCS(=O)(=O)Nc1ccccc1S(N)(=O)=O` [BTX 8151], for which the “Burkitt lymphoma cell proliferation” value in the assay with Burkitt lymphoma line is on record as “suppresses Burkitt lymphoma cell proliferation”.
Same read-out and setting: as for `CCCCS(=O)(=O)Nc1ccccc1-c1nnn[nH]1` [BTX 982], the entry is “suppresses Burkitt lymphoma cell proliferation”.
Regarding `CCCCCCCCCS(=O)(=O)N1C(=O)OCc2ccccc21` [BTX 2191], the cancer cell proliferation entry in assay [1] is “suppresses cancer cell proliferation”.
Regarding `CS(=O)(=O)Nc1ccccc1C#N` [BTX 671], the cancer cell proliferation entry in assay [1] is “suppresses cancer cell proliferation”.
For `CC(C)CS(=O)(=O)Nc1ccccc1C(=O)O` [BTX 106], the “Burkitt lymphoma cell proliferation” value in the assay on Burkitt lymphoma line was “suppresses Burkitt lymphoma cell proliferation”.
Take `CS(=O)(=O)Nc1ccccc1-c1nnn[nH]1` [BTX 281]: the cancer cell proliferation result in assay [1] was “suppresses cancer cell proliferation”.
For the molecule `N#Cc1ccccc1S(N)(=O)=O` [BTX 491001], the cancer cell proliferation result in assay [1] is on record as “suppresses cancer cell proliferation”.
On to `O=C(O)c1ccccc1NS(=O)(=O)Cc1ccccc1` [BTX 1010], for which the cancer cell proliferation entry in assay [1] is on record as “suppresses cancer cell proliferation”.
In the case of `CCCCCCCCCS(=O)(=O)Nc1ccccc1C(=O)O` [BTX 100], the cancer cell proliferation result in assay [1] is on record as “suppresses cancer cell proliferation”.
For `CCCCCCCCCS(=O)(=O)Nc1ccccc1C(=O)O` [FSG67, 2-(Nonylsulfonamido)benzoic acid], in the assay on MYC-induced tumors, the MYC-induced tumorigenesis result is listed as “blocked”, the metabolic changes entry was “suppressed” and the “tumors (regression)” value is “regressed”. Also, in assay [2], the IC50 is 24 µM. In the assay with diet-induced obese mice, the “body weight and adiposity” value was “decrease body weight and adiposity”; the “energy utilization as fatty acid oxidation” value was “enhance energy utilization as fatty acid oxidation”; the food intake result was “reduce food intake”; the hepatic steatosis result is “reverse hepatic steatosis”. Besides, the insulin sensitivity result with diet-induced obese mice is reported as “enhance insulin sensitivity”.
As to `CCCCCCCCCS(=O)(=O)Nc1ccccc1S(C)(=O)=O` [BTX 4171], the cancer cell proliferation result in assay [1] is reported as “suppresses cancer cell proliferation”.
Still for that read-out and setting: for `CCCCCCCCCNS(=O)(=O)c1ccccc1C(=O)O` [BTX 9161] the value was “suppresses cancer cell proliferation”.
`CS(=O)(=O)Nc1ccccc1CO` [BTX 931]: the “Burkitt lymphoma cell proliferation” value with Burkitt lymphoma line is recorded as “suppresses Burkitt lymphoma cell proliferation”.
Regarding `CCCCCCCCCS(=O)(=O)Nc1ccccc1Cl` [BTX 2111], the cancer cell proliferation result in assay [1] was “suppresses cancer cell proliferation”.
Take `CCCCCCCCCN1C(=N)c2ccccc2S1(=O)=O` [BTX 19102]: the cancer cell proliferation result in assay [1] was “suppresses cancer cell proliferation”.
